The text below walks through data of PMC8624457, “Synthesis and Characterization of the Ethylene-Carbonate-Linked L-Valine Derivatives of 4,4-Dimethylcurcumin with Potential Anticancer Activities” (Molecules, 2021).

The structures appear in SMILES notation.

The nature of data set [1]: Storage stability by HPLC purity / 1H NMR. Type of data set: physicochemical. The following applies: solution in d-chloroform, room temperature, fresh, 1 day, 4 days. The method, then:
The procedures employed for the synthesis of targeted compounds 1 and 2 are depicted in Scheme 1. The required DMCU was prepared according to a three-step sequence reported in the literature. Initially, the commercially available Boc-L-valine 3 was reacted with 2-aminoethanol 4 in the presence of HOTT and Et3N to provide the amide product 5 in 82% yield. Under treatment with 4-nitrophenyl chloroformate and DIPEA, 5 was converted into 6 in 87% yield. One equivalent or excess amount of 6 was coupled with the deprotonated DMCU, formed in situ by the treatment of DMCU with Cs2CO3, to afford compound 7 and 8, respectively. Compound 7 and 8 thus obtained were subjected to Boc deprotection under the standard conditions to give 1 and 2, respectively. The preliminary stability test was performed with NMR by applying 2 as a typical example. […] Based on our previous experience in the synthesis of DMCU-HMP, the instability could be ascribed to the cross-hydrolysis of carbonate group by the terminal amino group of side chain. Salt formation reactions of the N-terminal L-valine were then carried out to cap the nucleophilic amino group. […] 2-TFA is also stable in DMSO solution (0.1 M concentration). After 6-day storage at room temperate, the purity of 2-TFA remained intact. Accordingly, a similar salt formation procedure was employed to produce the stable 1-TFA. Compound 1-TFA along with 2-TFA were then applied for the following evaluations.
Figure 2 The stability assessments of 2 and 2-TFA. (A) A clear solution of 2 in d-chloroform was subjected to a purity assessment by ^1H NMR spectroscopy at various storage times (fresh prepared (≤1 h); 1 day; 4 days). (B) The HPLC purity of fresh prepared 2-TFA was 95.74%. The fresh prepared 2-TFA in a solid state was stored at room temperature for another 6 days and then dissolved in water for HPLC analysis. The HPLC purity was decided as 95.55%. The fresh prepared 2-TFA was dissolved in DMSO and the resulting solution was stored at room temperature for another 6 days. HPLC purity of 2-TFA in the DMSO solution was 94.66%. […]

The subject of data set [2] is HCT-116 colon cancer cell. The following applies: cited from earlier work.
Another data set concerns MDA-MB-231 breast cancer. The conditions noted are these: cited from earlier work.

Regarding `COc1cc(/C=C/C(=O)C(C)(C)C(=O)/C=C/c2ccc(OC(=O)OCCNC(=O)[C@@H](N)C(C)C)c(OC)c2)ccc1OC(=O)OCCNC(=O)[C@@H](N)C(C)C` [Compound 2], the “stability by 1H NMR (in words)” value in data set [1] is given as “gradually degraded into unidentified products”.
In the case of `COc1cc(/C=C/C(=O)C(C)(C)C(=O)/C=C/c2ccc(OC(=O)C(C)(CO)CO)c(OC)c2)ccc1OC(=O)C(C)(CO)CO` [DMCU-HMP, 4,4-dimethyl substituted curcuminoid 2,2-bis(hydroxymethyl)propionate], the IC50 – broadly, the concentration needed to halve the response being measured – in data set [2] is 3100 nM; in the data set on MDA-MB-231 breast cancer, 2200 nM.
